Like-named read-outs stand apart in the source and are kept apart here.

This is an account of results in US20250163057A1, “DCN-1 MODULATING COMPOUNDS AND METHODS OF USE THEREOF” (Cellarity, Inc., priority 2023, published 2025).

The experiment has as its target DCN1 (DCUND1) protein PONY domain (Homo sapiens (Human), UniProt Q96GG9). In words: TR-FRET assay, DCN1 binding with FAM-labeled probe. How it is done: A TR-FRET assay was performed to evaluate the ability of the compounds to bind the DCN-1 protein.
The TR-FRET assay was designed following the Scott et al. protocol (Scott et al., Nat Chem Biol. 2017 August; 13(8): 850-857. Doi:10.1038/nchembio.2386). The recombinant form of the DCN1 (DCUND1) protein PONY domain was produced using an E. coli expression system at Viva Biotech (China). The DCN1 protein was biotinylated (EZ sulfo-NHS-LC-biotin; Thermofisher) for labeling with streptavidin terbium (Tb) cryptate in the reaction. The probe was changed to a non-covalent DCN1 inhibitor labeled with carboxyfluorescein (FAM; Zhou et al., Nat Commun. 2017; 8: 1150. Doi: 10.1038/s41467-017-01243-7). Buffer conditions were modified to enhance protein stability by exchanging Tween20 for TritonX and increasing NaCl to 200 mM. The compounds were screened against 5 nM DCN1 and 20 nM FAM-probe or 0.31 nM DCN1 and 900 nM total probe (100 nM FAM-labeled plus 800 nM unlabeled). The TR-FRET ratio between Tb-DCN1 and the FAM-labeled probe was measured in a 384-well opti-plate (Perkin Elmer) using a plate reader (BMG) at 1, 5, and 24 hrs after treatment with compound (final DMSO concentration of 0.1%).
On the technique in general: In TR-FRET formats the signal depends on donor and acceptor labels being close together.

The mark [1] stands for this setting: 24 hr after treatment with compound, read-out: TR FRET IC50 24 hr.
Setting [2] is: TR FRET IC50 1 hr (nM), 1 hr after treatment with compound.

Sequence of DCN1 (DCUND1) protein PONY domain (Q96GG9 60-248): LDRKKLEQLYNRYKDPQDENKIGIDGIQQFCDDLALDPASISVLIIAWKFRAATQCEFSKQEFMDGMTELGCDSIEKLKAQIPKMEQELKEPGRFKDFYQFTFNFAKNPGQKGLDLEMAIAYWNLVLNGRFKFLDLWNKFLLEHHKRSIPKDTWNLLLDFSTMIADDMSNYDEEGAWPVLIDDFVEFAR

As a reminder, the IC50 is the point on the concentration scale where inhibition reaches its midpoint. In the case of `CCN1C(=O)[C@@H](NC(=O)c2cccc(C(F)(F)F)c2)[C@@H](C2CC2)c2c(CN(C)C#N)nn(-c3ccccc3)c21` [Compound I-111], the half-maximal inhibitory concentration (IC50) runs as follows: under setting [1], 200 to 1000 nM; under setting [2], 1000 to 3000 nM.
For `CCN1C(=O)[C@@H](NC(=O)c2cccc(C(F)(F)F)c2)[C@@H](c2ccc(F)cc2)c2c(NC(=O)C#CCN3CCOCC3)nn(-c3ccccc3)c21` (racemic) [Compound I-11, rac-N-((4R,5R)-7-ethyl-4-(4-fluorophenyl)-3-(4-morpholinobut-2-ynamido)-6-oxo-1-phenyl-4,5,6,7-tetrahydro-1H-pyrazolo[3,4-b]pyridine-5-yl)-3-(trifluoromethyl)benzamide] the same measures were no more than 200 nM and 200 to 1000 nM.
Regarding `CCN1C(=O)[C@@H](NC(=O)CCc2cnn(C)c2)[C@@H](C2CC2)c2c(C(=O)N3[C@H](C#N)C[C@H]4C[C@H]43)nn(C3CCOCC3)c21` [Compound I-433], the IC50 under setting [1] lay within 1000 to 3000 nM and the IC50 under setting [2] is 1000 to 3000 nM.
In the case of `CCN1C(=O)[C@@H](NC(=O)c2cccc(C(F)(F)F)c2)[C@@H](c2ccc(F)cc2)c2c(C(=O)NCCC#N)nn(-c3ccccc3)c21` (racemic) [Compound I-81, rac-(4R,5R)—N-(2-cyanoethyl)-7-ethyl-4-(4-fluorophenyl)-6-oxo-1-phenyl-5-(3-(trifluoromethyl)benzamido)-4,5,6,7-tetrahydro-1H-pyrazolo[3,4-b]pyridine-3-carboxamide], the IC50 lay in the range of 1000 to 3000 nM under setting [1] and 1000 to 3000 nM under setting [2].
For `CCN1C(=O)[C@@H](NC(=O)c2cccc(C(F)(F)F)c2)[C@@H](c2ccc(F)cc2)c2c(C/C=C/C(=O)NCCN(C)C)nn(-c3ccccc3)c21` [Compound I-118], the IC50 was 200 to 1000 nM under setting [1] and 200 to 1000 nM under setting [2].
In the case of `CCN1C(=O)[C@@H](NC(=O)c2sc(NC(C)=O)nc2C)[C@@H](C2CC2)c2c(C(=O)N3[C@H](C#N)C[C@H]4C[C@H]43)nn(C3CCOCC3)c21` [Compound I-471], the IC50 lay within 1000 to 3000 nM under setting [1] and 1000 to 3000 nM under setting [2].
Take `CCN1C(=O)[C@@H](NC(=O)C(C)c2cccc(F)c2)[C@@H](C2CC2)c2c(C(=O)N3[C@H](C#N)C[C@H]4C[C@H]43)nn(C3CCOCC3)c21` (stereo partly drawn) [Compound I-440]: the IC50 runs as follows: under setting [1], 1000 to 3000 nM; under setting [2], 1000 to 3000 nM.
Take `CCN1C(=O)[C@@H](NC(=O)c2cccc(C(F)(F)F)c2)[C@@H](c2ccc(F)cc2)c2c(C(=O)N3CC[C@H](C#N)C3)nn(-c3ccccc3)c21` (mixture of isomers) [Compound I-137]: the IC50 under setting [1] lay in the range of 200 to 1000 nM and the IC50 under setting [2] is 200 to 1000 nM.
As to `CCN1C(=O)[C@@H](NC(=O)c2cccc(C(F)(F)F)c2)[C@@H](c2ccc(F)cc2)c2c(C/C=C/C(=O)NCCCN(C)C)nn(-c3ccccc3)c21` (racemic) [Compound I-99], the IC50 fell in the range of 200 to 1000 nM under setting [1] and 200 to 1000 nM under setting [2].
As to `C=C(COC)C(=O)NCc1nn(-c2ccccc2)c2c1[C@H](c1ccc(F)cc1)[C@H](NC(=O)c1cccc(C(F)(F)F)c1)C(=O)N2CC` [Compound I-113], the IC50 runs as follows: under setting [1], 200 to 1000 nM; under setting [2], 200 to 1000 nM.
For the molecule `CCN1C(=O)[C@@H](NC(=O)c2cccc(C(F)(F)F)c2)[C@@H](c2ccc(F)cc2)c2c([C@@H](C)N(C)C#N)nn(-c3ccccc3)c21` [Compound I-44], the IC50 was no more than 200 nM under setting [1] and 200 to 1000 nM under setting [2].
As to `CCN1C(=O)[C@@H](NC(=O)c2cnc(C(F)(F)F)s2)[C@@H](C2CC2)c2c(C(=O)N3[C@H](C#N)C[C@H]4C[C@H]43)nn(C3CCOCC3)c21` [Compound I-513], the IC50 reads like this: under setting [1], 1000 to 3000 nM; under setting [2], 1000 to 3000 nM.
As for `CCN1C(=O)[C@@H](NC(=O)c2cc(S(C)(=O)=O)ccc2F)[C@@H](C2CC2)c2c(C(=O)N3[C@H](C#N)C[C@H]4C[C@H]43)nn(C3CCOCC3)c21` [Compound I-475], the IC50 reads like this: under setting [1], 1000 to 3000 nM; under setting [2], 1000 to 3000 nM.
`CCN1C(=O)[C@@H](NC(=O)c2cccc(C(F)(F)F)c2)[C@@H](c2ccc(F)cc2)c2c(/C=C3/CCC(=O)N3)nn(-c3ccccc3)c21` (racemic) [Compound I-70, rac-N-((4R,5R)-7-ethyl-4-(4-fluorophenyl)-6-oxo-3-((Z)-(5-oxopyrrolidin-2-ylidene)methyl)-1-phenyl-4,5,6,7-tetrahydro-1H-pyrazolo[3,4-b]pyridin-5-yl)-3-(trifluoromethyl)benzamide]: the half-inhibitory concentration (IC50) by setting is: under setting [1], 1000 to 3000 nM; under setting [2], 1000 to 3000 nM.
Consider `CCN1C(=O)[C@@H](NC(=O)c2cnn(CC(F)(F)F)c2)[C@@H](C2CC2)c2c(C(=O)N3[C@H](C#N)C[C@H]4C[C@H]43)nn(C3CCOCC3)c21` [Compound I-507], for which the IC50 by setting is: under setting [1], 1000 to 3000 nM; under setting [2], 1000 to 3000 nM.
On to `CCN1C(=O)[C@@H](NC(=O)c2cccc(C(F)(F)F)c2)[C@@H](c2ccc(F)cc2)c2c(C/C=C/C(N)=O)nn(-c3ccccc3)c21` (racemic) [Compound I-46, rac-N-((4R,5R)-3-((E)-4-amino-4-oxobut-2-en-1-yl)-7-ethyl-4-(4-fluorophenyl)-6-oxo-1-phenyl-4,5,6,7-tetrahydro-1H-pyrazolo[3,4-b]pyridin-5-yl)-3-(trifluoromethyl)benzamide], for which the IC50 reads like this: under setting [1], 1000 to 3000 nM; under setting [2], 1000 to 3000 nM.
`CCN1C(=O)[C@@H](NC(=O)c2cccc(C#N)c2)[C@@H](C2CC2)c2c(C(=O)N3[C@H](C#N)C[C@H]4C[C@H]43)nn(C3CCOCC3)c21` [Compound I-698]: the IC50 is 200 to 1000 nM under setting [1] and 200 to 1000 nM under setting [2].
On to `C=C(Cc1nn(-c2ccccc2)c2c1[C@H](c1ccc(F)cc1)[C@H](NC(=O)c1cccc(C(F)(F)F)c1)C(=O)N2CC)C(=O)OC(C)(C)C` (racemic) [Compound I-78, rac-tert-butyl 2-(((4R,5R)-7-ethyl-4-(4-fluorophenyl)-6-oxo-1-phenyl-5-(3-(trifluoromethyl)benzamido)-4,5,6,7-tetrahydro-1H-pyrazolo[3,4-b]pyridin-3-yl)methyl)acrylate], for which the IC50 by setting is: under setting [1], 1000 to 3000 nM; under setting [2], 1000 to 3000 nM.
For the molecule `CCN1C(=O)[C@@H](NC(=O)C2CCOc3ccccc32)[C@@H](C2CC2)c2c(C(=O)N3[C@H](C#N)C[C@H]4C[C@H]43)nn(C3CCOCC3)c21` (stereo partly drawn) [Compound I-598], the IC50 under setting [1] is 1000 to 3000 nM and the IC50 under setting [2] was in the range of 1000 to 3000 nM.
Consider `CCN1C(=O)[C@@H](NC(=O)c2cccc(C(F)(F)F)c2)[C@@H](c2ccc(F)cc2)c2c(C(=O)NC(C)(C)C#N)nn(-c3ccccc3)c21` (racemic) [Compound I-31, rac-(4R,5R)—N-(2-cyanopropan-2-yl)-7-ethyl-4-(4-fluorophenyl)-6-oxo-1-phenyl-5-(3-(trifluoromethyl)benzamido)-4,5,6,7-tetrahydro-1H-pyrazolo[3,4-b]pyridine-3-carboxamide], for which the IC50 was in the range of 1000 to 3000 nM under setting [1] and 1000 to 3000 nM under setting [2].
For the molecule `CCN1C(=O)[C@H](NC(=O)c2cccc(C(F)(F)F)c2)[C@@H](c2ccc(F)cc2)c2c(CN(C)C#N)nn(-c3ccccc3)c21` (single isomer, unassigned) [Compound I-82], the IC50 fell in the range of 1000 to 3000 nM under setting [1] and 1000 to 3000 nM under setting [2].
